US6686371B2, “Non-steroidal, tetracylic compounds for estrogen-related treatments” (Akzo Nobel N.V., priority 2000, dated 2004)

Columns and labels:
[1] = molecular target: T1, human estrogen receptor β receptor (hERβ) (Homo sapiens, UniProt Q92731); test: competitive binding to cytoplasmic human estrogen receptor β from recombinant CHO cells; details: % relative to 17β-estradiol, cytosol of recombinant CHO cells; for ERβ Binding (Potency Binding (ERβ)): Table 1; for Binding ERβ: Table 2
T1 construct: expressed in transfected cells; host or cells: Chinese hamster ovary (CHO) cells, stably co-transfected with hERβ, rat oxytocin promoter and luciferase reporter
T1 sequence (Q92731 whole entry): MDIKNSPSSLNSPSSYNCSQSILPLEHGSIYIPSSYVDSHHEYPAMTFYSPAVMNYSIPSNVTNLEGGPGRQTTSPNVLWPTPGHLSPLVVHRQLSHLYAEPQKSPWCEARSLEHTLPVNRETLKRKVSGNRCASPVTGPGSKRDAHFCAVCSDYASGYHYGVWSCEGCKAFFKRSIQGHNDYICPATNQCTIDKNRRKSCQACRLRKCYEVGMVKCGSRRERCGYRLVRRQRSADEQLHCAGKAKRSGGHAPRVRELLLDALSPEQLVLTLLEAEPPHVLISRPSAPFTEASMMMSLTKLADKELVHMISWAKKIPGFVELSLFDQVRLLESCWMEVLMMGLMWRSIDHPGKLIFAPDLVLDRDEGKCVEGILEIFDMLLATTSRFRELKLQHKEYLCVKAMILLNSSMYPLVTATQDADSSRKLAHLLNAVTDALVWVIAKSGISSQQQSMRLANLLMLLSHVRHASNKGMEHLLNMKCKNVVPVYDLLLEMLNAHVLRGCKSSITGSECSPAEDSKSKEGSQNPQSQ
Experimental: (§1) Compounds are tested for their estrogen receptor activity in a binding assay and in a transactivation assay.
(§2) Determination of competitive binding to cytoplasmic human estrogen receptor α or β from recombinant CHO cells is used to estimate the relative affinity (potency ratio) of a test compound for estrogen receptors present in the cytosol of recombinant Chinese hamster ovary (CHO) cells, stably transfected with the human estrogen receptor α (hERα) or β receptor (hERβ), as compared with estradiol (E2).

[2] = molecular target: T1, human estrogen receptor β receptor (hERβ); test: transactivation assay, estrogenic activity, recombinant CHO cells co-transfected with hERβ, rat oxytocin promoter and luciferase reporter; format: cell-based; details: for ERβ Transactivation (Potency Transactivation (ERβ)): potency % relative to 17β-estradiol, CHO cells, hERβ, luciferase reporter; for β/α ratio Transactivation: ratio of transactivation potency hERβ over hERα
Experimental: as §1
The estrogenic and antiestrogenic activity of compounds is determined in an in vitro bioassay with recombinant Chinese hamster ovary (CHO) cells stably co-transfected with the human estrogen receptor α (hERα) or β receptor (hERβ), the rat oxytocin promoter (RO) and the luciferase reporter gene (LUC). The estrogenic activity (potency ratio) of a test compound to stimulate the transactivation of the enzyme luciferase mediated via the estrogen receptors hERα or hERβ is compared with the standard estrogen estradiol. The antiestrogenic activity (potency ratio) of a test compound to inhibit the transactivation of the enzyme luciferase mediated via the estrogen receptors hERα or hERβ by the estrogen estradiol is compared with the standard ICI 164.384 (=(7α,17β)-N-butyl-3,17-dihydroxy-N-methylestra-1,3,5(10)-triene-7-undecanamide).

[3] = molecular target: T2, human estrogen receptor α (hERα) (Homo sapiens, UniProt P03372); test: competitive binding to cytoplasmic human estrogen receptor α from recombinant CHO cells; details: % relative to 17β-estradiol; cytosol of recombinant CHO cells; Table 2
T2 construct: expressed in transfected cells; host or cells: cytosol of recombinant Chinese hamster ovary (CHO) cells stably transfected with hERα
T2 sequence (P03372 1-595): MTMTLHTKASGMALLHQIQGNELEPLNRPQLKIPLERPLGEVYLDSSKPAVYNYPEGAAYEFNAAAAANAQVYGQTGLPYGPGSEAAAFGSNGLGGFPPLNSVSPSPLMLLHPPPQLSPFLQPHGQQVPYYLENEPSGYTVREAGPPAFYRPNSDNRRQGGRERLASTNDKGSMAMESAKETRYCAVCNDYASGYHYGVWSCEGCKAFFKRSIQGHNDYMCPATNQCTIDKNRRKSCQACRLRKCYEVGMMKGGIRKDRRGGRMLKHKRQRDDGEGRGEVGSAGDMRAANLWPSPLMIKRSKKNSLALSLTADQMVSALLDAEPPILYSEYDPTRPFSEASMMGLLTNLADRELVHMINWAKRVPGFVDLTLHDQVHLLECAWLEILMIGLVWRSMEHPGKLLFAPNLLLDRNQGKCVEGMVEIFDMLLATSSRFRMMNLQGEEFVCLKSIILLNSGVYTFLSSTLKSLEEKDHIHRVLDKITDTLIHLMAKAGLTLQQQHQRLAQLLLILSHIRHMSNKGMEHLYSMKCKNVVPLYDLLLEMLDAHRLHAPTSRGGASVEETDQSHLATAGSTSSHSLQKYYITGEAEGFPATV
Experimental: as §1, §2

| Molecule | ERβ Binding (Potency Binding (ERβ)) [1] | ERβ Transactivation (Potency Transactivation (ERβ)) [2] | β/α ratio Transactivation [2] | melting point | Binding ERβ [1] | Binding ERα [3] |
| --- | --- | --- | --- | --- | --- | --- |
| Cc1c2c(cc3ccc(O)cc13)-c1ccc(O)cc1C2 [Compound 67d, 2,8-dihydroxy-10-methyl-11H-benzo[b]fluorene] | ++ (between 2-10%) | + (between 0.1-4%) | ++ (between 10-30) | 265 °C |  |  |
| Oc1ccc2c(c1)Cc1cc3cc(O)ccc3c(Cl)c1-2 [Compound 60, 2,8-dihydroxy-5-chloro-11H-benzo[b]fluorene] | +++ (>10%) | +++ (>10%) | +++ (>30) |  | ++++ (>8%) | ++ (between 1.5-3.5%) |
| COc1ccc2c(c1)Cc1c-2nc2ccc(OC)cc2c1Br [Compound 2b, 10-bromo-2,8-dimethoxy-11H-indeno[1,2-b]quinoline] | ++ (between 2-10%) | + (between 0.1-4%) | ++ (between 10-30) |  |  |  |
| Oc1ccc2c(c1)CCc1c-2nc2ccc(O)cc2c1Cl [Compound 10, 7-chloro-3,9-dihydroxy-5,6-dihydro-benz[c]acridine] |  |  |  |  | ++++ (>8%) | ++++ (>8%) |
| CCCC(=O)Oc1ccc2c(c1)Cc1c-2nc2ccc(OC(=O)CCC)cc2c1Br [Compound 2d, Dibutyryl Ester of 10-bromo-2,8-dihydroxy-11H-indeno[1,2-b]quinoline] |  | + (between 0.1-4%) | ++ (between 10-30) |  |  |  |
| Oc1ccc2c(c1)Cc1cc3ccc(O)cc3cc1-2 [Compound 25, 2,7-dihydroxy-11H-benzo[b]fluorene] | ++ (between 2-10%) | + (between 0.1-4%) | − (<3.5) |  |  |  |
| Oc1ccc2c(c1)Cc1c-2nc2ccc(O)cc2c1Cl [Compound 7a, 10-chloro-2,8-dihydroxy-11H-indenol[1,2-b]quinoline] |  |  |  |  | +++ (between 3.5-8%) | − (<0.3%) |
| 10-chloro-1,1-dimethyl-2,8-dihydroxy-11H-indeno[1,2-b]quinoline [Compound 7d] |  |  |  |  |  | +++ (between 3.5-8%) |
| CC1c2cc(O)ccc2-c2c1cc1cc(O)ccc1c2Cl (stereo not drawn) [Compound 54, 2,8-dihydroxy-5-chloro-11-methyl-11H-benzo[b]fluorene] |  |  |  | 215 to 220 °C |  |  |
| Oc1ccc2c(c1)Cc1c-2nc2ccc(O)cc2c1-c1ccccc1 [Compound 5, 10-phenyl-2,8-dihydroxy-11H-indeno[1,2-b]quinoline] | ++ (between 2-10%) | − (<0.1%) |  |  |  |  |
| Cc1c(O)ccc2c1Cc1c-2nc2ccc(O)cc2c1Cl [Compound 7c, 10-chloro-1-methyl-2,8-dihydroxy-11H-indeno[1,2-b]quinoline] |  |  |  |  | ++ (between 1.5-3.5%) | + (between 0.1-1.5%) |
| Oc1ccc2c(c1)Cc1c-2cc2ccc(O)cc2c1Br [Compound 67b, 2,8-dihydroxy-10-bromo-11H-benzo[b]fluorene] | +++ (>10%) | +++ (>10%) | +++ (>30) |  |  |  |
| CC(C)(C)C(=O)Oc1ccc2c(c1)Cc1c-2cc2ccc(OC(=O)C(C)(C)C)cc2c1Cl [Compound 68a, di-pivaloyl Ester of 2,8-dihydroxy-10-chloro-11H-benzo[b]fluorene] |  | ++ (between 4-10%) | +++ (>30) |  |  |  |
| Oc1ccc2c(c1)Cc1c-2cc2ccc(O)cc2c1Cl [Compound 67a, 2,8-dihydroxy-10-chloro-11H-benzo[b]fluorene] | +++ (>10%) | +++ (>10%) | +++ (>30) |  |  |  |
| Oc1ccc2c(c1)Cc1c-2cc2ccc(O)cc2c1I [Compound 67c, 2,8-dihydroxy-10-iodo-11H-benzo[b]fluorene] | +++ (>10%) | +++ (>10%) | +++ (>30) |  |  |  |
| CCc1c2c(c(CC)c3ccc(O)cc13)-c1ccc(O)cc1C2 [Compound 47, 2,8-dihydroxy-5,10-diethyl-11H-benzo[b]fluorene] |  |  |  | 255 °C (dec.) |  |  |
| CCCc1c2c(c(CCC)c3ccc(O)cc13)-c1ccc(O)cc1C2 [Compound 57, 2,8-dihydroxy-5,10-dipropyl-11H-benzo[b]fluorene] |  |  |  | 250 °C |  |  |
| COc1ccc2c(c1)Cc1c-2nc2ccc(OC)cc2c1Cl [Compound 2a, 10-chloro-2,8-dimethoxy-11H-indeno[1,2-b]quinoline] | ++ (between 2-10%) | ++ (between 4-10%) | + (between 3.5-10) |  |  |  |
| Oc1ccc2c(c1)Cc1c-2cc2ccc(O)cc2c1C=C(F)F [Compound 50, 2,8-dihydroxy-10-(2,2-difluoro-ethenyl)-11H-benzo[b]fluorene] |  |  |  | 211 to 212 °C |  |  |
| Oc1ccc2c(c1)Cc1c-2nc2ccc(O)cc2c1Br [Compound 7b, 10-bromo-2,8-dihydroxy-11H-indeno[1,2-b]quinoline] |  |  |  |  | ++ (between 1.5-3.5%) | − (<0.3%) |
| Oc1ccc2c(c1)CCc1c-2cc2ccc(O)cc2c1C1CCCC1 [Compound 16, 3,9-dihydroxy-7-cyclopentyl-5,6-dihydro-benz[a]anthracene] |  |  |  | 233 to 235 °C |  |  |
| Oc1ccc(-c2c3c(cc4ccc(O)cc24)-c2ccc(O)cc2CC3)cc1 [Compound 16a, 3,9-dihydroxy-7-(4-hydroxyphenyl)-5,6-dihydro-benz[a]anthracene] |  |  |  | 272 °C |  |  |
| Oc1ccc2nc3c(c(Cl)c2c1)-c1cccc(O)c1CC3 [Compound 8, 12-chloro-4,10-dihydroxy-5,6-dihydro-benz[a]acridine] |  |  |  |  | ++ (between 1.5-3.5%) | ++ (between 1.5-3.5%) |
| CCCC(=O)Oc1ccc2c(c1)Cc1c-2nc2ccc(OC(=O)CCC)cc2c1Cl [Compound 2c, Dibutyryl Ester of 10-chloro-2,8-dihydroxy-1H-indeno[1,2-b]quinoline] |  | ++ (between 4-10%) | ++ (between 10-30) |  |  |  |
| CCCc1c2c(c(Cl)c3ccc(O)cc13)-c1ccc(O)cc1C2 [Compound 22, 2,8-dihydroxy-5-chloro-10-propyl-11H-benzo[b]fluorene] |  |  |  | 223 to 224 °C |  |  |
| CCc1c2c(c(Cl)c3ccc(O)cc13)-c1ccc(O)cc1C2 [Compound 40, 2,8-dihydroxy-5-chloro-10-ethyl-11H-benzo[b]fluorene] |  |  |  | 250 to 251 °C |  |  |
| Oc1ccc2c(c1)Cc1c-2cc2ccc(O)cc2c1C(F)(F)F [Compound 67e, 2,8-dihydroxy-10-trifluoromethyl-11H-benzo[b]fluorene] | +++ (>10%) | ++ (between 4-10%) | ++ (between 10-30) |  |  |  |
| Oc1ccc2c(c1)Cc1cc3cc(O)ccc3cc1-2 [Compound 69, 2,8-dihydroxy-11H-benzo[b]fluorene] | ++ (between 2-10%) | + (between 0.1-4%) | + (between 3.5-10) |  |  |  |
